Where “and” joins values, the source holds several entries; their conditions need not be identical. Equal values may be shown once. Numbers after ± are expanded uncertainties.
Assays:
[1] = 101.33 kPa, Liquid; for speed of sound: Sing-around technique in a fixed-path interferometer
[2] = xn = mol fraction of the nth substance listed; settings: 101.33 kPa, Liquid, x2 = 0; for speed of sound: Sing-around technique in a fixed-path interferometer

SMILES	mass density ([1]; 293.15 K) [kg/m3]	viscosity ([1]; 293.15 K) [mPa·s]	speed of sound ([1]; 293.15 K) [m/s]	mass density ([1]; 298.15 K)	viscosity ([1]; 298.15 K) [mPa·s]	speed of sound ([1]; 298.15 K) [m/s]	mass density ([1]; 303.15 K) [kg/m3]	viscosity ([1]; 303.15 K) [mPa·s]	speed of sound ([1]; 303.15 K) [m/s]	speed of sound ([2]; 293.15 K) [m/s]	mass density ([2]; 293.15 K) [kg/m3]	viscosity ([2]; 293.15 K) [mPa·s]	speed of sound ([2]; 298.15 K) [m/s]	mass density ([2]; 298.15 K) [kg/m3]	viscosity ([2]; 298.15 K) [mPa·s]	speed of sound ([2]; 303.15 K) [m/s]	mass density ([2]; 303.15 K) [kg/m3]	viscosity ([2]; 303.15 K) [mPa·s]
CCCCCCCC [octane]	702.57 ± 0.78	0.538 ± 0.01	1193 ± 1	698.54 ± 0.79 kg/m3	0.506 ± 0.009	1173 ± 1	694.49 ± 0.8	0.478 ± 0.009	1152 ± 1									
CCCCCCCC [octane] + CCCC(C)O										1193 ± 1	702.57 ± 0.78	0.538 ± 0.01	1173 ± 1	698.54 ± 0.79	0.506 ± 0.009	1152 ± 1	694.49 ± 0.8	0.478 ± 0.009
CCCC(C)O (stereo not drawn) [pentan-2-ol]	809.04 ± 0.99	4.001 ± 0.075	1250 ± 2	805.01 ± 0.99 kg/m3 and 805 ± 0.99 kg/m3	3.273 ± 0.063	1232 ± 2	800.9 ± 0.99	2.708 ± 0.053	1214 ± 2									

More lines, now with the values ahead:

mass density ([1]; 293.15 K) [kg/m3]	viscosity ([1]; 293.15 K) [mPa·s]	speed of sound ([1]; 293.15 K) [m/s]	mass density ([1]; 298.15 K)	viscosity ([1]; 298.15 K) [mPa·s]	speed of sound ([1]; 298.15 K) [m/s]	mass density ([1]; 303.15 K) [kg/m3]	viscosity ([1]; 303.15 K) [mPa·s]	speed of sound ([1]; 303.15 K) [m/s]	speed of sound ([2]; 293.15 K) [m/s]	mass density ([2]; 293.15 K) [kg/m3]	viscosity ([2]; 293.15 K) [mPa·s]	speed of sound ([2]; 298.15 K) [m/s]	mass density ([2]; 298.15 K) [kg/m3]	viscosity ([2]; 298.15 K) [mPa·s]	speed of sound ([2]; 303.15 K) [m/s]	mass density ([2]; 303.15 K) [kg/m3]	viscosity ([2]; 303.15 K) [mPa·s]	SMILES
729.89 ± 0.8	0.911 ± 0.016	1254 ± 1	726.12 ± 0.8 kg/m3	0.845 ± 0.015	1235 ± 1	722.33 ± 0.81	0.787 ± 0.014	1215 ± 1										CCCCCCCCCC [decane]
									1254 ± 1	729.89 ± 0.8	0.911 ± 0.016	1235 ± 1	726.12 ± 0.8	0.845 ± 0.015	1215 ± 1	722.33 ± 0.81	0.787 ± 0.014	CCCCCCCCCC [decane] + CCCC(C)O
748.54 ± 0.77	1.454 ± 0.024	1297 ± 1	744.9 ± 0.77 kg/m3	1.327 ± 0.022	1278 ± 1	741.27 ± 0.78	1.219 ± 0.02	1259 ± 1										CCCCCCCCCCCC [dodecane]
									1297 ± 1	748.54 ± 0.77	1.454 ± 0.024	1278 ± 1	744.9 ± 0.77	1.327 ± 0.022	1259 ± 1	741.27 ± 0.78	1.219 ± 0.02	CCCCCCCCCCCC [dodecane] + CCCC(C)O
